Values quoted from earlier work as cited in patent publication US20230071934A1, “NOVEL USES” (Intra-Cellular Therapies, Inc., priority 2019, published 2023).

Biological target: T1, sEH (Homo sapiens, UniProt P34913)
T1 sequence (P34913 1-555): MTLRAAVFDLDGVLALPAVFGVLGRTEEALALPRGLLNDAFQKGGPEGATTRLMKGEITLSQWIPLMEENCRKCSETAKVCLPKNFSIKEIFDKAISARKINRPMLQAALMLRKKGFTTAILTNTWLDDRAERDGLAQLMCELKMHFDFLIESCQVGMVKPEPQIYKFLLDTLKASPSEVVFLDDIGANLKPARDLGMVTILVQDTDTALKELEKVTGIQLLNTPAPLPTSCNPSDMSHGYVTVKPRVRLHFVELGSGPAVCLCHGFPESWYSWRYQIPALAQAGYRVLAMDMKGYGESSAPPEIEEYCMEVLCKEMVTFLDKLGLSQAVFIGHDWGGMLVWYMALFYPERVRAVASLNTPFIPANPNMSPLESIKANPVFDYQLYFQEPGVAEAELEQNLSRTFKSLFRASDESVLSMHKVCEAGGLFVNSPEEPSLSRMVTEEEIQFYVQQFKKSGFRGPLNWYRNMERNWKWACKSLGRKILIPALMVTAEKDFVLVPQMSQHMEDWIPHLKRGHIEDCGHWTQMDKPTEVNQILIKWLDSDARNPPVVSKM

CCCCCCCCCCCCNC(=O)NC12CC3CC(CC(C3)C1)C2 [ADU, N-Adamantyl-N′-dodecyl urea]
activity as an inhibitor of sEH: particularly high activity
